Test results taken from patent US5618560A, “Controlled release erodible composition” (BM Research A/S, priority 1988, dated 1997).

Assay: clinical
Design: species or system patients (human)
Conditions: human, in vivo, iv, 5 mg/kg, Serum half-life
Procedure: The in vivo release of theophylline from this composition was tested in six patients, 3 males and 3 females, aged 18-42 years (mean age 30 years), weighing from 63 to 85 kg (mean weight 66 kg), all of whom were diagnosed as having bronchial asthma.
The first dose was given to the patients before breakfast (i.e. in the fasting state) as two units of the composition (340 mg theophylline) together with 100 ml of liquid. […] Following the oral dose, venous blood samples were drawn at 0, 1, 2, 3, 4, 6, 8, 10, 12, 14, 16 and 24 hours. Serum samples were drawn at 0, 15 min., 30 min., 60 min., 90 min., and 2, 3, 5, 7, 9 and 11 hours after the i.v. dose. The serum portion of the blood specimen was immediately frozen at -20° C. and kept frozen until analyzed 2 weeks later. The amount of theophylline in the serum was assayed by HPLC with an accuracy of ±5%.

Question: For `Cn1c(=O)c2[nH]cnc2n(C)c1=O` [theophylline], which half-life is on record?
Answer: Its half-life is 6 h.
